This is an account of results in patent publication US8735398B2 (Bristol-Myers Squibb Company, priority 2009, dated 2014).

Molecules are shown by their SMILES.

The subject of one assay is HCV 1b genotype. The assay can be described thus: HCV replicon assay (HCV-neo replicon cells, wild-type). In kind it is cell-based, Hepatitis C virus. Particulars: HCV 1b genotype replicon; class symbol; read-out: EC50 Range against HCV 1b. An outline of the steps: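 Inhibition was tested in replicon-bearing cells, both wild-type HCV-neo and lines with NS5A resistance substitutions, using the O'Boyle et al. 2005 replicon method or luciferase-reporter formats.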
The term EC50 denotes the concentration giving half of the maximal effect. Consider `CN(C)C(C(=O)N1CCC[C@H]1C(=O)Nc1ccc(-c2cnc(-c3ccc(NC(=O)[C@@H]4CCCN4C(=O)C(c4ccc(F)cc4F)N(C)C)cc3)o2)cc1)c1ccc(F)cc1F` (single isomer, unassigned) [Example D-7], for which the EC50 lay in the range of 4.57 to 99 nM.

Consider `O=C(Nc1ccc(-c2ccc(-c3ccc(NC(=O)[C@@H]4CCCN4C(=O)[C@H](O)c4ccccc4)cc3)o2)cc1)[C@@H]1CCCN1C(=O)[C@H](O)c1ccccc1` [JG-56, (2S,2′S)-N,N′-(2,5-furandiyldi-4,1-phenylene)bis(1-((2R)-2-hydroxy-2-phenylacetyl)-2-pyrrolidinecarboxamide)], for which the EC50 is < 4.57 nM.

Still in this assay, the particulars now being: Hepatitis C virus, HCV 1b genotype replicon; class symbol; read-out: EC50 Range against HCV 1b.
With `CCOC(=O)Cc1nc(-c2ccc(NC(=O)[C@H](C)NC(=O)OCc3ccccc3)cc2)c(-c2ccc(NC(=O)[C@H](C)NC(=O)OCc3ccccc3)cc2)o1` [OL-1d, 4,5-bis[4-[[(2S)-1-oxo-2-[[(phenylmethoxy)carbonyl]amino]propyl]amino]phenyl]-2-oxazoleacetic acid, ethyl ester], the EC50 was in the range of 1000 to 10000 nM.

Turning to `CN(C)Cc1nc(-c2ccc(NC(=O)[C@@H]3CCCN3C(=O)Cc3ccccc3)cc2)c(-c2ccc(NC(=O)[C@@H]3CCCN3C(=O)Cc3ccccc3)cc2)o1` [OL-6], the EC50 is 1000 to 10000 nM. Still for that read-out and setting: the result for `CN(C)CC(Oc1ccc(Cl)cc1)C(=O)N1CCC[C@H]1C(=O)Nc1ccc(-c2cnc(-c3ccc(NC(=O)[C@@H]4CCCN4C(=O)C(CN(C)C)Oc4ccc(Cl)cc4)cc3)o2)cc1` (stereo partly drawn) [Example D-19, (2S,2′S)-N,N′-(1,3-oxazole-2,5-diyldi-4,1-phenylene)bis(1-(2-(4-chlorophenoxy)-3-(dimethylamino)propanoyl)-2-pyrrolidinecarboxamide)] reads 100 to 999 nM; that for `CC(=O)N1CCC[C@H]1C(=O)Nc1ccc(-c2nc(-c3ccc(NC(=O)[C@@H]4C=CCN4C(=O)[C@@H]4CCCO4)cc3)cs2)cc1` [Example D-52, (2S)-N-[4-[2-[4-[[[(2S)-1-acetyl-2-pyrrolidinyl]carbonyl]amino]phenyl]-4-thiazolyl]phenyl]-2,5-dihydro-1-[[(2S)-tetrahydro-2-furanyl]carbonyl]-1H-pyrrole-2-carboxamide], 1000 to 10000 nM. Still for that read-out and setting: the result for `O=C(Nc1ccc(-c2cnc(-c3ccc(NC(=O)[C@@H]4CCCN4C(=O)c4cc5ccccc5o4)cc3)o2)cc1)[C@@H]1CCCN1C(=O)c1cc2ccccc2o1` [JG-28, (2S,2′S)-N,N′-(1,3-oxazole-2,5-diyldi-4,1-phenylene)bis(1-(1-benzofuran-2-ylcarbonyl)-2-pyrrolidinecarboxamide)] reads 100 to 999 nM; that for `O=C(C(=O)N1CCC[C@H]1C(=O)Nc1ccc(-c2cnc(-c3ccc(NC(=O)[C@@H]4CCCN4C(=O)C(=O)c4ccccc4)cc3)o2)cc1)c1ccccc1` [JG-27, (2S,2′S)-N,N′-(1,3-oxazole-2,5-diyldi-4,1-phenylene)bis(1-(oxo(phenyl)acetyl)-2-pyrrolidinecarboxamide)], 4.57 to 99 nM; that for `O=C(Nc1ccc(-c2nc[nH]c2-c2ccc(NC(=O)[C@@H]3CCCN3C(=O)c3cc4ccccc4o3)cc2)cc1)[C@@H]1CCCN1C(=O)c1cc2ccccc2o1` [JG-51, (2S,2′S)-N,N′-(1H-imidazole-4,5-diyldi-4,1-phenylene)bis(1-(1-benzofuran-2-ylcarbonyl)-2-pyrrolidinecarboxamide)], 100 to 999 nM. The same measure, in the same setting: under `CC(=O)N1CCC[C@H]1C(=O)Nc1ccc(-c2nc(-c3ccc(NC(=O)[C@@H]4C=CCN4C(=O)c4ccno4)cc3)cs2)cc1` [Example D-50, (2S)-N-[4-[2-[4-[[[(2S)-1-acetyl-2-pyrrolidinyl]carbonyl]amino]phenyl]-4-thiazolyl]phenyl]-2,5-dihydro-1-(5-isoxazolylcarbonyl)-1H-pyrrole-2-carboxamide] stands 100 to 999 nM. As for `Cn1nc(-c2ccc(NC(=O)[C@@H]3CCCN3C(=O)Cc3ccccc3)cc2)cc1-c1ccc(NC(=O)[C@@H]2CCCN2C(=O)Cc2ccccc2)cc1` [FY-1, (2S,2′S)-N,N′-((1-methyl-1H-pyrazole-3,5-diyl)di-4,1-phenylene)bis(1-(phenylacetyl)-2-pyrrolidinecarboxamide)], the EC50 was 100 to 999 nM. Still for that read-out and setting: the result for `O=C(Nc1ccc(-c2nnc(-c3ccc(NC(=O)[C@@H]4CCCN4C(=O)[C@H]4CCCO4)cc3)o2)cc1)[C@@H]1CCCN1C(=O)[C@H]1CCCO1` [RK-15, (2S,2′S)-N,N′-(1,3,4-oxadiazole-2,5-diyldi-4,1-phenylene)bis(1-((2R)-tetrahydro-2-furanylcarbonyl)-2-pyrrolidinecarboxamide)] reads 1000 to 10000 nM.

Regarding `C[C@H](NC(=O)Cc1ccccc1)C(=O)Nc1ccc(-c2nnc(-c3ccc(NC(=O)[C@H](C)NC(=O)Cc4ccccc4)cc3)o2)cc1` [RK-23, (2S,2′S)-N,N′-(1,3,4-oxadiazole-2,5-diyldi-4,1-phenylene)bis(2-((phenylacetyl)amino)propanamide)], the EC50 fell in the range of 100 to 999 nM.

Regarding `O=C(Nc1ccc(-c2n[nH]c(=O)n2-c2ccc(NC(=O)[C@@H]3CCCN3C(=O)OCc3ccccc3)cc2)cc1)[C@@H]1CCCN1C(=O)OCc1ccccc1` [OL-13, (2S,2′S)-2,2′-[(1,5-dihydro-5-oxo-4H-1,2,4-triazole-3,4-diyl)bis(4,1-phenyleneiminocarbonyl)]bis-1-pyrrolidinecarboxylic acid, bis(phenylmethyl) ester,], the EC50 fell in the range of 1000 to 10000 nM. Same read-out and setting: under `O=C(Nc1ccc(-c2nnc(-c3ccc(NC(=O)[C@@H]4CCCN4C(=O)Cc4cccnc4)cc3)o2)cc1)[C@@H]1CCCN1C(=O)Cc1cccnc1` [Example D-63, (2S,2′S)-N,N′-(1,3,4-oxadiazole-2,5-diyldi-4,1-phenylene)bis[1-(3-pyridinylacetyl)-2-pyrrolidinecarboxamide]] stands 1000 to 10000 nM; under `CC(=O)N1CCC[C@H]1C(=O)Nc1ccc(-c2nnc(-c3ccc(NC(=O)[C@@H]4CCCN4C(=O)Cc4cccnc4)cc3)o2)cc1` [Example D-64, (2S)-1-acetyl-N-[4-[5-[4-[[[(2S)-1-(3-pyridinylacetyl)-2-pyrrolidinyl]carbonyl]amino]phenyl]-1,3,4-oxadiazol-2-yl]phenyl]-2-pyrrolidinecarboxamide], 1000 to 10000 nM.

The same assay, now with this note: Hepatitis C virus, HCV 1b genotype replicon; class symbols; read-out: EC50 Range against HCV 1b.
As for `O=C(Nc1ccc(-c2cnc(-c3ccc(NC(=O)[C@@H]4CCCN4C(=O)C(O)Cc4cccnc4)cc3)o2)cc1)[C@@H]1CCCN1C(=O)C(O)Cc1cccnc1` (stereo partly drawn) [JR-4, (2S,2′S)-N,N′-(2,5-oxazolediyldi-4,1-phenylene)bis[1-[2-hydroxy-1-oxo-3-(3-pyridinyl)propyl]-2-pyrrolidinecarboxamide]], the EC50 lay in the range of 1000 to 10000 nM.

Turning to `O=C(Nc1ccc(-c2cnc(-c3ccc(NC(=O)[C@@H]4CCCN4C(=O)c4sccc4Cl)cc3)o2)cc1)[C@@H]1CCCN1C(=O)c1sccc1Cl` [XY-25, (2S,2′S)-N,N′-(1,3-oxazole-2,5-diyldi-4,1-phenylene)bis(1-((3-chloro-2-thienyl)carbonyl)-2-pyrrolidinecarboxamide)], the EC50 lay within 1000 to 10000 nM. Same read-out and setting: under `CC(C)(C)O[C@@H]1C[C@@H](C(=O)Nc2ccc(-c3cnc(-c4ccc(NC(=O)[C@@H]5C[C@@H](OC(C)(C)C)CN5C(=O)c5ccccc5)cc4)o3)cc2)N(C(=O)c2ccccc2)C1` [XY-73, (2S,4R,2′S,4′R)-N,N′-(1,3-oxazole-2,5-diyldi-4,1-phenylene)bis(1-benzoyl-4-tert-butoxy-2-pyrrolidinecarboxamide)] stands 1000 to 10000 nM; under `CCc1ccccc1C(=O)N1C[C@H](OC(C)(C)C)C[C@H]1C(=O)Nc1ccc(-c2cnc(-c3ccc(NC(=O)[C@@H]4C[C@@H](OC(C)(C)C)CN4C(=O)c4ccccc4CC)cc3)o2)cc1` [XY-65, (2S,4R,2′S,4′R)-N,N′-(1,3-oxazole-2,5-diyldi-4,1-phenylene)bis(4-tert-butoxy-1-(2-ethylbenzoyl)-2-pyrrolidinecarboxamide)], 1000 to 10000 nM; under `CCCC(C)C(=O)N1CCC[C@H]1C(=O)Nc1ccc(-c2cnc(-c3ccc(NC(=O)[C@@H]4CCCN4C(=O)C(C)CCC)cc3)o2)cc1` (stereo partly drawn) [XY-9, (2S,2′S)-N,N′-(1,3-oxazole-2,5-diyldi-4,1-phenylene)bis(1-(2-methylpentanoyl)-2-pyrrolidinecarboxamide)], 100 to 999 nM. Still for that read-out and setting: the result for `CCc1ccccc1C(=O)N1C[C@H](O)C[C@H]1C(=O)Nc1ccc(-c2cnc(-c3ccc(NC(=O)[C@@H]4C[C@@H](O)CN4C(=O)c4ccccc4CC)cc3)o2)cc1` [XY-47, (2S,4R,2′S,4′R)-N,N′-(1,3-oxazole-2,5-diyldi-4,1-phenylene)bis(1-(2-ethylbenzoyl)-4-hydroxy-2-pyrrolidinecarboxamide)] reads 100 to 999 nM; that for `COc1cc(C(=O)N2CCC[C@H]2C(=O)Nc2ccc(-c3nnc(-c4ccc(NC(=O)[C@@H]5CCCN5C(=O)c5cc(Cl)nc(OC)c5)cc4)o3)cc2)cc(Cl)n1` [RK-40, (2S,2′S)-N,N′-(1,3,4-oxadiazole-2,5-diyldi-4,1-phenylene)bis(1-(2-chloro-6-methoxyisonicotinoyl)-2-pyrrolidinecarboxamide)], 1000 to 10000 nM. The same measure, in the same setting: the result for `Cc1noc(C)c1C(=O)N1C[C@H](OC(C)(C)C)C[C@H]1C(=O)Nc1ccc(-c2cnc(-c3ccc(NC(=O)[C@@H]4C[C@@H](OC(C)(C)C)CN4C(=O)c4c(C)noc4C)cc3)o2)cc1` [XY-72, (2S,4R,2′S,4′R)-N,N′-(1,3-oxazole-2,5-diyldi-4,1-phenylene)bis(4-tert-butoxy-1-((3,5-dimethyl-4-isoxazolyl)carbonyl)-2-pyrrolidinecarboxamide)] reads 100 to 999 nM; that for `O=C(Nc1ccc(-c2cnc(-c3ccc(NC(=O)[C@@H]4CCCN4C(=O)C(O)c4cccnc4)cc3)o2)cc1)[C@@H]1CCCN1C(=O)C(O)c1cccnc1` (stereo partly drawn) [JR-7, (2S,2′S)-N,N′-(2,5-oxazolediyldi-4,1-phenylene)bis[1-(hydroxy-3-pyridinylacetyl)-2-pyrrolidinecarboxamide]], 4.57 to 99 nM.

The assay is the same for the next values; noted with them: Hepatitis C virus, HCV 1b genotype replicon; read-out: EC50 1b.
For the compound `CCc1ccccc1C(=O)N1C[C@H](O)C[C@H]1C(=O)Nc1ccc(-c2cnc(-c3ccc(NC(=O)[C@@H]4C[C@@H](O)CN4C(=O)c4ccccc4CC)cc3)o2)cc1` [XY-47, (2S,4R,2′S,4′R)-N,N′-(1,3-oxazole-2,5-diyldi-4,1-phenylene)bis(1-(2-ethylbenzoyl)-4-hydroxy-2-pyrrolidinecarboxamide)], the concentration for a half-maximal effect (EC50) came out at 564 nM. Still for that read-out and setting: the result for `O=C(Nc1ccc(-c2ccc(-c3ccc(NC(=O)[C@@H]4CCCN4C(=O)[C@H](O)c4ccccc4)cc3)o2)cc1)[C@@H]1CCCN1C(=O)[C@H](O)c1ccccc1` [JG-56, (2S,2′S)-N,N′-(2,5-furandiyldi-4,1-phenylene)bis(1-((2R)-2-hydroxy-2-phenylacetyl)-2-pyrrolidinecarboxamide)] reads < 5 nM. Consider `O=C(Nc1ccc(-c2nnc(-c3ccc(NC(=O)[C@@H]4CCCN4C(=O)Cc4cccnc4)cc3)o2)cc1)[C@@H]1CCCN1C(=O)Cc1cccnc1` [Example D-63, (2S,2′S)-N,N′-(1,3,4-oxadiazole-2,5-diyldi-4,1-phenylene)bis[1-(3-pyridinylacetyl)-2-pyrrolidinecarboxamide]], for which the EC50 worked out at 1940 nM. The same measure, in the same setting: the result for `CC(=O)N1CCC[C@H]1C(=O)Nc1ccc(-c2nnc(-c3ccc(NC(=O)[C@@H]4CCCN4C(=O)Cc4cccnc4)cc3)o2)cc1` [Example D-64, (2S)-1-acetyl-N-[4-[5-[4-[[[(2S)-1-(3-pyridinylacetyl)-2-pyrrolidinyl]carbonyl]amino]phenyl]-1,3,4-oxadiazol-2-yl]phenyl]-2-pyrrolidinecarboxamide] reads 6570 nM.
